Results on 1 molecule are retold here after patent US20230181801A1, “MOLECULAR IODINE-INFUSED POLYMERS, ARTICLES, AND PRODUCTS, AND THEIR PREPARATION AND USE” (I2PURE CORP., priority 2021, published 2023).

For data set [1] the following is noted: room temperature; cited from earlier work.
Data set [2] in a line: Stability of molecular iodine in solvent at room temperature. It is filed as physicochemical. To be noted: in ethanol, 15 days at room temperature in the dark.

Take `II` [I2, molecular iodine]: the “maximum solubility in water” value in data set [1] is 332 ppm. In addition, in data set [2], the “loss of molecular iodine” value is recorded as “over 15%”.
